Test results taken from patent US7795208B2, “Methods of using deacetylase inhibitors to promote cell differentiation and regeneration” (The Salk Institute for Biological Study, priority 2001, dated 2010).

Legend:
Assay type in all cases: cell-based, mouse
[1] = system: histones of the MCK enhancer; experiment: Chromatin immunoprecipitation with anti-acetyl-histone H4; details: myoblasts exposed to TSA in GM 16 hours, then DM 24 hours
Experimental: In FIG. 3A, MyoD acetylation in undifferentiated C2C12 myoblasts (GM) untreated (−) or treated with either sodium butyrate (Butyr.) or TSA and in differentiated myotubes (abbrev. DM in FIG. 3A, but not to be confused with the abbreviation for “differentiation medium” as used elsewhere herein) was measured by ^3H incorporation of exogenously transfected Flag-tagged MyoD following metabolic labeling with ^3H sodium acetate as described in Sartorelli, V., et al., Molecular Cell 4:725-34 (1999). […] Chromatin was immunoprecipitated with antibodies against acetyl-histone 4 (AcH4) or IgG (as a control). Purified DNA from anti-AcH4 immunoprecipitated chromatin was analyzed by PCR using primers recognizing GAPDH promoter and MCK enhancer as described in Example 1. Unbound DNA (lanes 2 and 3, top panel) is an aliquot of chromatin not immunoprecipitated by anti-AcH4 antibody and amplified with GAPDH primers. Input (lanes 2 and 3, bottom panel) is an aliquot (1%) of the chromatin analyzed before the immunoprecipitation to quantify the amount of DNA present in different samples. […] Myoblasts were then formaldehyde cross-linked and processed. […]
The MCK primers amplify nucleotides −1229 to −1007 of the MCK enhancer, while the GAPDH primers amplify nucleotides −1030 to −721. The PCR products were analyzed on 6% non-denaturing polyacrylamide gels. […]

[2] = system: 4RE-luc and MCK-luc; experiment: Chromatin-integrated muscle-specific reporters in stable C2C12 clones; details: TSA in GM (presence of serum), 48 hours
Experimental: FIGS. 2A-D are graphs showing DI activation muscle-specific transcription in skeletal muscle cells. […] Luciferase activity was measured in non-treated cells cultured in either GM (GM) or DM (DM). Alternatively, C2C12 were exposed to sodium butyrate for 24 hours in GM and then switched to DM without sodium butyrate (Butyr/GM>DM) or treated with sodium butyrate when cultured in DM (Butyr/DM) before being analyzed for luciferase activity. […] Luciferase assays were performed after culturing the cells for 48 hours in DM without sodium butyrate. […] The reporter activity was also analyzed in cells differentiated in the absence of TSA (DM)
Mouse muscle myoblast C2C12 cells (obtained from the American Type Culture Collection, ATCC CRL-1772) and CC42 cells (from Dr. Kenneth Walsh, Tufts University School of Medicine) were cultured in DMEM supplemented with 20% fetal bovine serum, 2 mM glutamine and 1× kanamycin (growth medium, GM). Cellular differentiation was induced with DMEM supplemented with 2% horse serum and 1× insulin, transferring, selenium (Life Technologies). Human skeletal myocytes (CC-2561) were purchased from Clonetics. […] Following transfections, luciferase activity was determined using the Dual-Luciferase reporter assay system (Promega) on a microtiter luminescence detection system (MLX, Dynex). […]

[3] = system: E2F-responsive construct; experiment: Luciferase assay of E2F-responsive construct; details: cells exposed to DI in DM
Experimental: FIGS. 2A-D are graphs showing DI activation muscle-specific transcription in skeletal muscle cells. […] Luciferase activity was measured in non-treated cells cultured in either GM (GM) or DM (DM). […] The reporter activity was also analyzed in cells differentiated in the absence of TSA (DM) Mouse muscle myoblast C2C12 cells (obtained from the American Type Culture Collection, ATCC CRL-1772) and CC42 cells (from Dr. Kenneth Walsh, Tufts University School of Medicine) were cultured in DMEM supplemented with 20% fetal bovine serum, 2 mM glutamine and 1× kanamycin (growth medium, GM). Cellular differentiation was induced with DMEM supplemented with 2% horse serum and 1× insulin, transferring, selenium (Life Technologies). Human skeletal myocytes (CC-2561) were purchased from Clonetics. Stable C2C12 cell lines with integrated reporters are described in Wu, Z., et al., Mol Cell Biol 20:3951-64 (2000). The MCK-luc, 4RE-luc, MEF2 reporter constructs have been described in Puri, P. L., et al., EMBO Journal 16:369-83 (1997a) and Sartorelli, V., et al., Molecular & Cellular Biology 17:1010-26 (1997). The E2F-luc plasmid is described in […]., et al., Genes Dev 7:1850-61 (1993). […] Following transfections, luciferase activity was determined using the Dual-Luciferase reporter assay system (Promega) on a microtiter luminescence detection system (MLX, Dynex).

- transcription driven from an E2F-responsive construct [3]: stimulated
Structure (SMILES): CC(/C=C/C(=O)NO)=C\[C@@H](C)C(=O)c1ccc(N(C)C)cc1 [TSA, trichostatin A]
- histone H4 acetylation of the MCK enhancer (ChIP) [1]: histone hyperacetylation of the MCK enhancer
- activation of integrated 4RE-luc and MCK-luc templates [2]: two-to-three
